Data on 12 substances can be found in article PMC10795512 (Cell reports. Physical science, 2023).

The test system of one data set is S. aureus ATCC 12600. In words: MIC, broth microdilution. Format: cell-based, Staphylococcus aureus. Conditions: LB broth, 5 × 10^5 CFU mL^−1, 24 h at 37°C, OD 600 nm, three replicates. A general note: In broth dilution the organism is exposed to a series of concentrations in liquid medium.
For a further data set, the system named is E. coli ATCC 11775. In words: MIC, broth microdilution. Conditions: LB broth, 5 × 10^5 CFU mL^−1, 24 h at 37°C, OD 600 nm, three replicates. Type of data set: cell-based, Escherichia coli.
Data set [1] concerns human embryonic kidney (HEK) cells (ATCC HEK293T). Briefly: Cytotoxicity, XTT assay. Format: cell-based.
In data set [2] the test system is primary human keratinocytes. Briefly: Cytotoxicity, XTT assay. Conditions: for toxicity: at the highest concentration tested, 64 μmol L^−1, 24 h. Type of data set: cell-based.
In data set [3] the test system is P. aeruginosa PAO1. Briefly: MIC, broth microdilution. Type of data set: cell-based, Pseudomonas aeruginosa. Conditions: LB broth, 5 × 10^5 CFU mL^−1, 24 h at 37°C, OD 600 nm, three replicates.
A further data set deals with P. aeruginosa PA14. Briefly: MIC, broth microdilution. Type of data set: cell-based, Pseudomonas aeruginosa. Conditions: LB broth, 5 × 10^5 CFU mL^−1, 24 h at 37°C, OD 600 nm, three replicates.
Data set [4] deals with E. coli JW2703 (hypermutant strain) ΔmutS::kan. Briefly: Resistance development assay. Type of data set: cell-based, Escherichia coli. The conditions noted are these: over the same period (20 days).
The test system of data set [5] is P. aeruginosa PAO1. In words: Synergy. Format: cell-based, Pseudomonas aeruginosa. The conditions noted are these: checkerboard; for FICI, combined with PMB: 2- to 0.03-fold MIC, 24 h at 37°C, three replicates; for FICI, WT1 and WT2 in combination: different concentrations.
Another data set deals with mouse erythrocytes. The conditions noted are these: at a concentration of 10^−4 mol L^−1; cited from earlier work.
Another data set relates to human erythrocytes. The conditions noted are these: at a concentration of 10^−4 mol L^−1; cited from earlier work.

Where no end group is shown, it is not given here.

Take LKLMGIVKKVLAAL-NH2 [A12–1]: the MIC with S. aureus ATCC 12600 and in the data set on E. coli ATCC 11775 was 2 µM throughout.
Turning to LKLLGIVKKVLAAI-NH2 [A12–2], the MIC in the data set with S. aureus ATCC 12600 is 2 µM; in the data set on E. coli ATCC 11775, 4 µM.
LKLLGIVKKVLGKI-NH2 [K13–2]: the toxicity entry in data set [1] (any of the concentrations tested (1 to 64 μmol L^−1), 24 h) is “no toxicity”; in data set [2], “low toxicity”. For the same substance, the MIC in the data set with E. coli ATCC 11775 was found to be 4 µM; in the data set with P. aeruginosa PAO1 [3], 4 µM; against P. aeruginosa PA14, 16 µM.
As for LKLAGIVKKVLGAL-NH2 [A4–1], the MIC in the data set on S. aureus ATCC 12600 worked out at 8 µM; against E. coli ATCC 11775, 4 µM.
Regarding polymyxin B [PMB], the “change of MIC during resistance assay” value in [4] was “did not vary significantly”.
On to LKLLAIVKKVLGAI-NH2 [A5–2], for which the MIC in the data set on S. aureus ATCC 12600 and against E. coli ATCC 11775 was 4 µM throughout.
With LKLLGIVKKKLGAI-NH2 [K10–2], the toxicity entry in [1] (at 16 μmol L^−1, 24 h) was “no toxicity”. In data set [2] (at 8 μmol L^−1, 24 h), this substance showed a cell viability remaining of 92%. Moreover, the MIC against S. aureus ATCC 12600 was determined as 8 µM; with E. coli ATCC 11775 it was 4 µM; with P. aeruginosa PAO1 [3], 4 µM; in the data set with P. aeruginosa PA14 it was 8 µM.
Take LKLMGIVKKVLGKL-NH2 [K13–1]: the toxicity entry is recorded as “toxic” in data set [1] (at 4-fold MIC, 24 h) and “low toxicity” in data set [2]. In addition, the MIC was found to be 128 µM in the data set on S. aureus ATCC 12600, 4 µM in the data set on E. coli ATCC 11775, 8 µM in the data set on P. aeruginosa PAO1 [3] and 16 µM in the data set with P. aeruginosa PA14. The “FICI, combined with PMB” value with P. aeruginosa PAO1 [5] came out at 0.6.
Turning to AKLMGIVKKVLGAL-NH2 [A1–1], the MIC with S. aureus ATCC 12600 was found to be 8 µM; in the data set with E. coli ATCC 11775 it was 4 µM; against P. aeruginosa PAO1 [3], 16 µM; against P. aeruginosa PA14 it was 16 µM.
For “LKLLGIVKKVLGAI-NH2 [WT2, reference compound]”, the hemolytic activity entry with mouse erythrocytes and with human erythrocytes was “hemolytic activity” in each case. Also, the MIC against S. aureus ATCC 12600 amounted to 32 µM; against E. coli ATCC 11775 it was 16 µM; with P. aeruginosa PAO1 [3], 32 µM; in the data set on P. aeruginosa PA14, 64 µM. In addition, in the data set with P. aeruginosa PAO1 [5], the “FICI, combined with PMB” value stood at 0.5. In addition, the “FICI, WT1 and WT2 in combination” value in the data set with P. aeruginosa PAO1 [5] is 0.7.
Turning to LKLMAIVKKVLGAL-NH2 [A5–1], the MIC against S. aureus ATCC 12600 and in the data set on E. coli ATCC 11775 was 4 µM each time.
For “LKLMGIVKKVLGAL-NH2 [WT1, reference compound]”, the hemolytic activity entry in the data set on mouse erythrocytes and with human erythrocytes was “hemolytic activity” in each case. Also, the MIC was found to be 16 µM in the data set with S. aureus ATCC 12600, 8 µM in the data set with E. coli ATCC 11775, 32 µM against P. aeruginosa PAO1 [3] and 32 µM against P. aeruginosa PA14. For the same substance, in the data set on P. aeruginosa PAO1 [5], the “FICI, combined with PMB” value was 0.7. In the data set with P. aeruginosa PAO1 [5], the “FICI, WT1 and WT2 in combination” value came to 0.7.

The MIC is the least concentration at which growth counts as inhibited. A higher MIC goes with a need for much substance.
